Source: patent US20240294551A1 (AMGEN INC., priority 2022, published 2024)
Structures can show the parent of a compound that is named as a salt. Where two headings read alike, the source gives them in different places.

Legend:
[1] = tested on: Phosphorylation of ERK1/2 in AsPC-1 cells; experiment: Phospho-ERK1/2 MSD Assay; format: cell-based, human
How it was run: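 Read-out: MSD electrochemiluminescent detection of phosphorylated ERK1/2 in whole-cell lysates, fitted to a 4-parameter logistic curve for IC50. Prior to lysis, AsPC-1 cells (25,000 per well) received a 2 h compound dose-response at 37 °C.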

AsPC-1 cells = experiment: AsPC-1 CTG Assay (CellTiter-Glo cell viability); format: cell-based, human; conditions: first value of the cell, read-out: G12D/C/V Cell Proliferation CTG (72 h) AsPC-1
How it was run: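 IC50 values derive from 4-parameter logistic fits of CellTiter-Glo luminescence, expressed relative to DMSO. Compound dilution series were applied to overnight-seeded AsPC-1 or SW620 cells (RPMI 1640, 10% FBS) for 72 h at 37 °C, 5% CO2.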

[2] = target: GDP-bound KRAS protein (aa 1-169), containing both G12D and C118A amino acid substitutions (Homo sapiens (Human), UniProt P01116, C118A/G12D); experiment: KRAS G12D Coupled Nucleotide Exchange Assay; format: biochemical
Chain of GDP-bound KRAS protein (aa 1-169), containing both G12D and C118A amino acid substitutions (P01116 other isoform, or with tags, fused parts or gaps G12D/C118A): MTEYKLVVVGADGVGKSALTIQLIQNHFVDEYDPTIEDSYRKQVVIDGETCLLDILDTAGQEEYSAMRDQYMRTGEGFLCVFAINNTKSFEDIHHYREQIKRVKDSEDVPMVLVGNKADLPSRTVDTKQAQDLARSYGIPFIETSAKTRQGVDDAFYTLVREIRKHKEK

[3] = target: His-tagged KRAS G12D protein (Homo sapiens (Human), UniProt P01116, G12D); experiment: KRAS G12D TR-FRET Assay; format: binding
Chain of His-tagged KRAS G12D protein (P01116 other isoform, or with tags, fused parts or gaps G12D): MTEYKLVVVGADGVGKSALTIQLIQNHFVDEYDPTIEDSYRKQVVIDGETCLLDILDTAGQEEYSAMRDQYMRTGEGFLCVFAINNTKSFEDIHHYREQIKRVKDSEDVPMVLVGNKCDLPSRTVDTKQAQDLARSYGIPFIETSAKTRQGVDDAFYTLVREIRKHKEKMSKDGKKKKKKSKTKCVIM
How it was run: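 Each incubation ran at room temperature: enzyme with compound for 30 minutes, peptide for one hour, and detection reagents (0.4 nM europium anti-6×His, 5 nM streptavidin-d2) for one hour more. Protein and peptide stocks were each diluted to 20 nM before addition.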

[4] = Homo sapiens, ASPC1, 2 h, read-out: 2 h p-ERK (AsPC-1 cells), IC50
[5] = Homo sapiens, ASPC1, 72 h, AsPC-1, 72 h
[6] = read-out: KRAS G12D Coupled Exchange IC50
[7] = read-out: KRAS G12D Binding IC50

IC50 [1, 4]	IC50 (AsPC-1 cells; [5])	IC50 [2, 6]	IC50 [3, 7]	IC50 ([1]; Homo sapiens, ASPC1, 2 h, read-out: 2 h p-ERK (AsPC-1 cells))	IC50 (AsPC-1 cells; Homo sapiens, ASPC1, 72 h, AsPC-1 cells (G12D), 72 h)	IC50 ([2]; 2 hours compound pre-incubation, read-out: KRAS G12D Coupled Exchange)	IC50 ([3]; TR-FRET, read-out: KRAS G12D Binding)	IC50 ([1]; 2 h, read-out: 2 h p-ERK (AsPC-1 cells), IC50)	IC50 (AsPC-1 cells; AsPC-1, 72 h)	SMILES
0.545 µM	3.97 µM	0.012 µM	0.019 µM							Fc1c2ncc3c(nc(OC[C@@]45CCCN4C[C@H](F)C5)nc13)N1CC[C@@H](COCCCCc3c(Cl)cc4[nH]ncc4c3-2)C1 [Example 254, (17R)-9-chloro-29-fluoro-23-(((2R,7aS)-2-fluorotetrahydro-1H-pyrrolo[1,2-a]pyrrol-7a(5H)-yl)methoxy)-15-oxa-5,6,20,22,24,28-hexaazahexacyclo[23.3.1.1~17,20~.0~2,10~.0~3,7~.0~21,26~]triaconta-1(29),2,4,7,9,21,23,25,27-nonaene]
0.043 µM	0.422 µM	0.003 µM	0.005 µM							Cc1cc2[nH]ncc2c2c1CCCCC(=O)O[C@]1(C)CCCN(C1)c1nc(OC[C@@]34CCCN3C[C@H](F)C4)nc3c(F)c-2ncc13 [Example 32, (17R)-30-fluoro-24-(((2R,7aS)-2-fluorotetrahydro-1H-pyrrolo[1,2-a]pyrrol-7a(5H)-yl)methoxy)-9,17-dimethyl-16-oxa-5,6,21,23,25,29-hexaazahexacyclo[24.3.1.1~17,21~.0~2,10~.0~3,7~.0~22,27~]hentriaconta-1(30),2,4,7,9,22,24,26,28-nonaen-15-one]
1.1 µM	5 µM	0.002 µM	0.003 µM							O=C1CCCCc2c(Cl)cc3[nH]ncc3c2-c2ncc3c(nc(OC[C@@]45CCCN4C[C@H](F)C5)nc3c2F)N2CCC[C@]3(C2)C[C@H](C3)N1 [Example 273, (1S,3R)-11-chloro-33-fluoro-25-(((2R,7aS)-2-fluorotetrahydro-1H-pyrrolo[1,2-a]pyrrol-7a(5H)-yl)methoxy)-4,14,15,20,24,26,28-heptaazaheptacyclo[26.3.1.1~1,3~.1~19,23~.0~10,18~.0~13,17~.0~22,27~]tetratriaconta-10,12,15,17,19(33),20,22,24,26-nonaen-5-one]
0.0678 µM	1.2 µM	0.006 µM	0.009 µM							C[C@@H]1CCOC[C@H]2CN(CCO2)c2nc(OC[C@@]34CCCN3C[C@H](F)C4)nc3c(F)c(ncc23)-c2c(c(Cl)cc3[nH]ncc23)C1 [Example 253, (12S,17R)-9-chloro-30-fluoro-24-(((2R,7aS)-2-fluorotetrahydro-1H-pyrrolo[1,2-a]pyrrol-7a(5H)-yl)methoxy)-12-methyl-15,18-dioxa-5,6,21,23,25,29-hexaazahexacyclo[24.3.1.1~17,21~.0~2,10~.0~3,7~.0~22,27~]hentriaconta-1(30),2,4,7,9,22,24,26,28-nonaene]
0.234 µM	1.97 µM	0.01 µM	0.014 µM							O=C1OCCc2c(Cl)cc3[nH]ncc3c2-c2cc3nc(OC[C@@]45CCCN4C[C@H](F)C5)nc(c3nn2)N2CCC[C@]3(C2)C[C@H](C3)O1 [Example 357, (1R,3S)-10-chloro-24-(((2R,7aS)-2-fluorotetrahydro-1H-pyrrolo[1,2-a]pyrrol-7a(5H)-yl)methoxy)-4,6-dioxa-13,14,19,20,23,25,27-heptaazaheptacyclo[25.3.1.1~1,3~.1~18,22~.0~9,17~.0~12,16~.0~21,26~]tritriaconta-9,11,14,16,18(32),19,21,23,25-nonaen-5-one]
0.0094 µM	0.229 µM	0.005 µM	0.004 µM							O=C1N[C@@H]2CCCCN(C2)c2nc(OC[C@@]34CCCN3C[C@H](F)C4)nc3c(F)c(ncc23)-c2c(c(Cl)cc3[nH]ncc23)CCCO1 [Example 256, (26R)-18-chloro-32-fluoro-4-(((2R,7aS)-2-fluorotetrahydro-1H-pyrrolo[1,2-a]pyrrol-7a(5H)-yl)methoxy)-23-oxa-1,3,5,9,14,15,25-heptaazahexacyclo[24.4.1.1~6, 10~.0~2,7~.0~11,19~.0~12,16~]dotriaconta-2,4,6(32),7,9,11,13,16,18-nonaen-24-one]
0.066 µM	0.41 µM	0.005 µM	0.009 µM							O=C1OCCC2CCc3cc4[nH]ncc4c(c32)-c2ncc3c(nc(OC[C@@]45CCCN4C[C@H](F)C5)nc3c2F)N2CCC[C@H](C2)O1 (stereo partly drawn) [Example 125]
0.745 µM	2.14 µM	0.007 µM	0.014 µM							C[C@@]12CCCN(C1)c1nc(OC[C@@]34CCCN3C[C@H](F)C4)nc3c(F)c(ncc13)-c1cccc3ccc(F)c(c13)CCOC(=O)N2 [Example 77, (15R)-22,31-difluoro-8-(((2R,7aS)-2-fluorotetrahydro-1H-pyrrolo[1,2-a]pyrrol-7a(5H)-yl)methoxy)-15-methyl-18-oxa-3,7,9,11,16-pentaazahexacyclo[19.7.1.1~2,6~.1~11,15~.0~5,10~.0~25,29~]hentriaconta-1(29),2(31),3,5,7,9,21,23,25,27-decaen-17-one]
0.0239 µM	0.06 µM	0.024 µM	0.049 µM							Cc1cc2[nH]ncc2c2c1CCOC(=O)O[C@H]1C[C@]3(CCCN(C3)c3nc(OC[C@@]45CCCN4C[C@H](F)C5)nc4c(F)c-2ncc34)C1 [Example 193, (1R,3S)-32-fluoro-24-(((2R,7aS)-2-fluorotetrahydro-1H-pyrrolo[1,2-a]pyrrol-7a(5H)-yl)methoxy)-10-methyl-4,6-dioxa-13,14,19,23,25,27-hexaazaheptacyclo[25.3.1.1~1,3~.1~18,22~.0~9,17~.0~12,16~.0~21,26~]tritriaconta-9,11,14,16,18(32),19,21,23,25-nonaen-5-one]
0.0829 µM	0.996 µM	0.006 µM	0.013 µM							Fc1c2ncc3c(nc(OC[C@@]45CCCN4C[C@H](F)C5)nc13)N1CCOCC(C1)Cn1ncc(n1)/C=C\c1c(Cl)cc3[nH]ncc3c1-2 (stereo partly drawn) [Example 258, (20Z)-18-chloro-34-fluoro-4-(((2R,7aS)-2-fluorotetrahydro-1H-pyrrolo[1,2-a]pyrrol-7a(5H)-yl)methoxy)-29-oxa-1,3,5,9,14,15,24,25,33-nonaazaheptacyclo[25.4.1.1~6,10~.1~22,25~.0~2,7~.0~11,19~.0~12,16~]tetratriaconta-2,4,6,8,10(34),11,13,16,18,20,22(33),23-dodecaene]
				0.137 µM	0.211 µM	0.016 µM	0.031 µM			OC1CCCCc2c(Cl)cc3[nH]ncc3c2-c2ncc3c(nc(OC[C@@]45CCCN4C[C@H](F)C5)nc3c2F)N2CCC[C@@H](C1)C2 (mixture of isomers) [Example 385, bis(2,2,2-trifluoroacetate) salt]
0.0304 µM	0.645 µM	0.002 µM	0.005 µM							Cc1cc2[nH]ncc2c2c1CCOC(=O)O[C@H]1C[C@]3(CCCN(C3)c3nc(OC[C@@]45CCCN4C[C@H](F)C5)nc4cc-2ncc34)C1 [Example 349, (1R,3S)-24-(((2R,7aS)-2-fluorotetrahydro-1H-pyrrolo[1,2-a]pyrrol-7a(5H)-yl)methoxy)-10-methyl-4,6-dioxa-13,14,19,23,25,27-hexaazaheptacyclo[25.3.1.1~1,3~.1~18,22~.0~9,17~.0~12,16~.0~21,26~]tritriaconta-9,11,14,16,18(32),19,21,23,25-nonaen-5-one]
0.099 µM	0.475 µM	0.003 µM	0.01 µM							Cc1cc2[nH]ncc2c2c1CCCCC(=O)N[C@]1(C)CCCCN(C1)c1nc(OC[C@@]34CCCN3C[C@H](F)C4)nc3c(F)c-2ncc13 [Example 280, (26R)-32-fluoro-4-(((2R,7aS)-2-fluorotetrahydro-1H-pyrrolo[1,2-a]pyrrol-7a(5H)-yl)methoxy)-18,26-dimethyl-1,3,5,9,14,15,25-heptaazahexacyclo[24.4.1.1~6,10~.0~2,7~.0~11,19~.0~12,16~]dotriaconta-2,4,6,8,10(32),11,13,16,18-nonaen-24-one]
0.0052 µM	0.082 µM	0.001 µM	0.002 µM							O=C1OCCCc2c(Cl)cc(O)cc2-c2ncc3c(nc(OC[C@@]45CCCN4C[C@H](F)C5)nc3c2F)N2CCOC[C@H](C2)O1 [Example 355, (23S)-15-chloro-29-fluoro-4-(((2R,7aS)-2-fluorotetrahydro-1H-pyrrolo[1,2-a]pyrrol-7a(5H)-yl)methoxy)-13-hydroxy-20,22,25-trioxa-1,3,5,9-tetraazapentacyclo[21.4.1.1~6,10~.0~2,7~.0~11,16~]nonacosa-2,4,6,8,10(29),11,13,15-octaen-21-one]
		0.005 µM	0.01 µM					0.0232 µM	0.281 µM	O[C@@H]1C[C@@H]2CN(C1)c1nc(OC[C@@]34CCCN3C[C@H](F)C4)nc3c(F)c(ncc13)-c1c(c(Cl)cc3[nH]ncc13)CCCn1ncc2n1 (single isomer, unassigned) [Example 300]
